In patent publication US4132847A, “4-Pyrone prostaglandin antagonists” (Pfizer Inc., priority 1977, dated 1979) one finds inhibition and c-AMP level data, which are given here for 4 molecules.

For the assay, the system named is accumulation of c-AMP by PGE2. Nature of the assay: Antagonism of PGE2-enhanced c-AMP levels in mouse thymus cells (radioimmunoassay). It is filed as cell-based. The text has this:
A suitable test for this purpose is based on the enhancement of cyclic AMP (adenosine-3',5'-monophosphate) levels in tissues due to adenyl cyclase stimulated by the action of prostaglandins of the PGE2 type. An exemplification of such a test used to determine the antagonist activity of the compounds of the present invention is as follows. A BC 57/BL (Jackson Laboratories) mouse is sacrificed and the thymus gland removed and teased apart to provide thymus cells which are suspended in a culture medium. The degradation of c-AMP is blocked by addition of 4-(3-butoxy-4-methoxybenzyl)-2-imidazolidinone (Hoffman-LaRoche, Ro 20-1724), a c-AMP phosphodiesterase inhibitor. A measured dose of the compound under test is added to the suspension of cells and the suspension is incubated at 37° C. for ten minutes. A measured dose of PGE2 is added to the suspension, which is then incubated for a further period of 30 minutes. The cells are then centrifuged, washed and the c-AMP extracted with ethanol. The ethanol extract is evaporated to dryness, redissolved in buffer solution and the c-AMP level determined by a radioimmunoassay, see Zimmerman et al, Anal. Biochem. 71, 79 (1976) and Steiner et al, J. Biol. Chem. 247, 1106 (1972). Comparison of the enhancement of c-AMP levels produced by PGE2 alone and by PGE2 together with the compound under test allow determination of the antagonist activity.
An example of the results from this test are those obtained with 2-(3-hydroxy-trans-1-octenyl)-3-(5-carboethoxypentyloxy)-4-pyrone. The initial c-AMP level of the cell culture was measured as 1.9 ± 0.7 picomole c-AMP/10^7 cells. Incubation with 10^-5 M PGE2 alone enhanced the level to 88 ± 7 picomole c-AMP/10^7 cells. By comparison, when the cells were incubated for ten minutes with 7 × 10^-5 M of the test compound the c-AMP level was measured at 2 ± 0.1 picomole c-AMP/10^7 cells. Following incubation for 30 minutes with 10^-5 M PGE2 the level was measured as 51 ± 5 picomole c-AMP/10^7 cells. Similarly, in a second experiment, after ten minutes incubation with 7 × 10^-6 M of the test compound, the c-AMP level was measured at 1.4 ± 0.2 picomoles c-AMP/10^7 cells; after 30 minutes incubation with 10^-5 M PGE2 the c-AMP level was measured as 69 ± 8 picomoles c-AMP/10^7 cells. […] Both of these compounds are well known in the art as prostaglandin antagonists.

As to `CCCCCCC#C[C@H]1CCC[C@@H]1OCCCCCC(=O)O` [7-oxa-13-prostynoic acid, reference compound], under “Mus musculus, concentration of 10^-4 M, same test conditions”, the inhibition (in general, the share of the control response that was lost under treatment) at 100 µM came to 45%.
With `CCCCC[C@H](O)/C=C/[C@H]1[C@H](O)CC(=O)[C@@H]1C/C=C\CCCC(=O)O` [PGE2, reference compound], the c-AMP level (incubation with 10^-5 M PGE2 alone (initial level 1.9 ± 0.7)) amounted to 88 ± 7 picomole c-AMP/10^7 cells.
As for `CCCCCC(O)/C=C/c1occc(=O)c1OCCCCCC(=O)OCC` (racemic) [2-[(3RS)-3-hydroxy-trans-1-octenyl]-3-(5-carboethoxypentyloxy)-4-pyrone], the c-AMP level is 51 ± 5 picomole c-AMP/10^7 cells (7 × 10^-5 M test compound, then 30 minutes with 10^-5 M PGE2 (PGE2 alone 88 ± 7)); 69 ± 8 picomoles c-AMP/10^7 cells (second experiment, 7 × 10^-6 M test compound, then 30 minutes with 10^-5 M PGE2); 1.4 ± 0.2 picomoles c-AMP/10^7 cells (second experiment, ten minutes with 7 × 10^-6 M test compound, before PGE2); 2 ± 0.1 picomole c-AMP/10^7 cells (thymus cells incubated ten minutes with 7 × 10^-5 M test compound, before PGE2).
`CC(=O)NNC(=O)N1Cc2ccccc2Oc2ccc(Cl)cc21` [SC-19220, reference compound]: under “Mus musculus, 5 × 10^-5 M, same test conditions”, the inhibition at 50 µM turned out to be 30%.
